Data from ChEMBL document CHEMBL1138903, “Secondary amides of sulfonylated 3-amidinophenylalanine. New potent and selective inhibitors of matriptase” (J Med Chem, 2006).

Experiments:
[1] = target: Urokinase-type plasminogen activator (Homo sapiens, UniProt P00749); experiment: Inhibition of uPA
Plasminogen = Plasminogen (Homo sapiens, UniProt P00747); experiment: Inhibition of plasmin
Coagulation factor X = Coagulation factor X (Homo sapiens, UniProt P00742); experiment: Inhibition of f10a
Prothrombin = Prothrombin (Homo sapiens, UniProt P00734); experiment: Inhibition of thrombin
[2] = target: T1, Suppressor of tumorigenicity 14 protein (Homo sapiens, UniProt Q9Y5Y6)
T1 sequence (Q9Y5Y6 whole entry): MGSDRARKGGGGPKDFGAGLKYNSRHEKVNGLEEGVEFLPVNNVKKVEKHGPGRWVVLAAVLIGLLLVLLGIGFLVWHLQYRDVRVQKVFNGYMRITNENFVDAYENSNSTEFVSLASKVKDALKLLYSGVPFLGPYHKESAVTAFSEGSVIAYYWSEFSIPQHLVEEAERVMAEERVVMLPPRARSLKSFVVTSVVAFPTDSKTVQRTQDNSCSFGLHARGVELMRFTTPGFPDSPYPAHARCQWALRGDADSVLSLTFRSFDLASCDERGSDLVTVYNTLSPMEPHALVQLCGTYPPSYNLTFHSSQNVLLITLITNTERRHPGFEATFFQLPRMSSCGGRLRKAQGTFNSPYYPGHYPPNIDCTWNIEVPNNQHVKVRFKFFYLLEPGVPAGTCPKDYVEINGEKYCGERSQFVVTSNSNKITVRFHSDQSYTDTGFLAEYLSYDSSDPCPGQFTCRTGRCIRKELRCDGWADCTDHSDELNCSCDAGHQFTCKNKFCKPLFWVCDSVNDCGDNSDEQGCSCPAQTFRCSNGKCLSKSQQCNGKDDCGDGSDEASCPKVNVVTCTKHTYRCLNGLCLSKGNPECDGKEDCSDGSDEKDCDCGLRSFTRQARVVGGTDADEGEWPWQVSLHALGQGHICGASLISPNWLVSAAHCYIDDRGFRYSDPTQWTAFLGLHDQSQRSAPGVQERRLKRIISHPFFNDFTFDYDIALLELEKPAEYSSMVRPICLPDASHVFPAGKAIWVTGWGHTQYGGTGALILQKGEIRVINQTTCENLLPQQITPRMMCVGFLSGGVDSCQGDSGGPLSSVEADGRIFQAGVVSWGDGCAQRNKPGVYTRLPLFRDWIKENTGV

Plasminogen, sequence (P00747 97-580 limits assumed): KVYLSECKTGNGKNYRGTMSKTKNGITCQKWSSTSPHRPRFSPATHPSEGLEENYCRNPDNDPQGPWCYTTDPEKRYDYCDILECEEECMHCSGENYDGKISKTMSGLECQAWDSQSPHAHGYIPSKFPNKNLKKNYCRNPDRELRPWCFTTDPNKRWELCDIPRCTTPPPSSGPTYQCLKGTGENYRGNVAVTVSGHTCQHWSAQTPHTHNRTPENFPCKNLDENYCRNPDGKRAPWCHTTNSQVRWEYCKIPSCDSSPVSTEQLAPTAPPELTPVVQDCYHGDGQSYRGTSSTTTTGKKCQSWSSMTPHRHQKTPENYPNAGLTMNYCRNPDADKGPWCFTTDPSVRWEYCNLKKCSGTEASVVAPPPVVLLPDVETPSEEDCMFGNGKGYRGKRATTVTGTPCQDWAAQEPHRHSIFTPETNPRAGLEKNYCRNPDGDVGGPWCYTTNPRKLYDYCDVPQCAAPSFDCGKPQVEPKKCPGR
Plasminogen, sequence (P00747 581-810 limits assumed): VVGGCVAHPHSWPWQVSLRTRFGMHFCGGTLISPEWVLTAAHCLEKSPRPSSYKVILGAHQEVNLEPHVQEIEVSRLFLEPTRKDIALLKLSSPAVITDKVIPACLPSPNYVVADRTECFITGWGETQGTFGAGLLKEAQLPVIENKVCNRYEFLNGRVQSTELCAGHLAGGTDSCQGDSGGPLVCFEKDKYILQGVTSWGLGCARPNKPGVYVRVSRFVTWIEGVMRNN
Coagulation factor X, sequence (P00742 41-179 limits assumed): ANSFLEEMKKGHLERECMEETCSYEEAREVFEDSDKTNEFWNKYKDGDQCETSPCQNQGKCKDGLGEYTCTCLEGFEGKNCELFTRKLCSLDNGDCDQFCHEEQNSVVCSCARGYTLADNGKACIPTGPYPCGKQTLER
Coagulation factor X, sequence (P00742 235-488 limits assumed): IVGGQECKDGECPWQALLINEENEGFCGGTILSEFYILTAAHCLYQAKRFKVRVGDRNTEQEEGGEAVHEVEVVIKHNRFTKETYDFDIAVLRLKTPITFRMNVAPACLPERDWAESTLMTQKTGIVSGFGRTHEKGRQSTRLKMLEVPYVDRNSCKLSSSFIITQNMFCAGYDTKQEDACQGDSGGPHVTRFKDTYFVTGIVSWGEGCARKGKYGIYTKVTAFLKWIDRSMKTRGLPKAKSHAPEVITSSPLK

Ki [1] | Ki (Plasminogen) | Ki (Coagulation factor X) | Ki (Prothrombin) | Ki [2] | SMILES
1600 nM | 1800 nM | 3700 nM | 13000 nM |  | CC(C)c1cc(C(C)C)c(S(=O)(=O)N[C@@H](Cc2cccc(C(=N)N)c2)C(=O)N2CCN(C(=N)N)CC2)c(C(C)C)c1
10500 nM | 780 nM | 2300 nM | 120 nM | 89 nM | N=C(N)NCCC(=O)N1CCN(C(=O)[C@H](Cc2cccc(C(=N)N)c2)NS(=O)(=O)c2ccc(C3CCCCC3)cc2)CC1
26000 nM | 7200 nM | 2800 nM | 1800 nM | 53 nM | N=C(N)NCCC(=O)N1CCN(C(=O)[C@H](Cc2cccc(C(=N)N)c2)NS(=O)(=O)c2ccc3c(c2)C(=O)c2ccccc2C3=O)CC1
2300 nM | 1400 nM | 76000 nM | 210 nM |  | N=C(N)c1cccc(C[C@H](NS(=O)(=O)c2ccc3ccccc3c2)C(=O)N2CCC(CCN)CC2)c1
19000 nM | 3700 nM | 5100 nM | 2500 nM | 340 nM | N=C(N)NCCC(=O)N1CCN(C(=O)[C@H](Cc2cccc(C(=N)N)c2)NS(=O)(=O)c2cccc3ccccc23)CC1
 |  | 1700 nM |  |  | CCOC(=O)N1CCN(C(=O)[C@H](Cc2cccc(C(=N)N)c2)NS(=O)(=O)c2c(C(C)C)cc(C(C)C)cc2C(C)C)CC1
1100 nM | 600 nM | 10000 nM | 5000 nM |  | CC(C)c1cc(C(C)C)c(S(=O)(=O)N[C@@H](Cc2cccc(C(=N)N)c2)C(=O)N2CCN(C(=O)C3CCN(C(=N)N)CC3)CC2)c(C(C)C)c1
1700 nM | 5000 nM | 9500 nM | 6000 nM | 1.8 nM | N=C(N)c1cccc(C[C@H](NS(=O)(=O)c2cccc(NC(=O)CCN)c2)C(=O)N2CCC(CCN=C(N)N)CC2)c1
1200 nM | 940 nM | 6300 nM | 16000 nM | 380 nM | CC(C)c1cc(C(C)C)c(S(=O)(=O)N[C@@H](Cc2cccc(C(=N)N)c2)C(=O)N2CCC(C(=O)NCCN)CC2)c(C(C)C)c1
3600 nM | 840 nM | 2300 nM | 270 nM | 53 nM | N=C(N)c1cccc(C[C@H](NS(=O)(=O)c2ccc(Cc3ccncc3)cc2)C(=O)N2CCC(CCN=C(N)N)CC2)c1
2100 nM | 730 nM | 66000 nM | 600 nM | 160 nM | N=C(N)c1cccc(C[C@H](NS(=O)(=O)c2ccc3ccccc3c2)C(=O)N2CCC(CCCN)CC2)c1
6600 nM | 2800 nM | 1100 nM | 170 nM |  | N=C(N)c1cccc(C[C@H](NS(=O)(=O)c2ccc(C3CCCCC3)cc2)C(=O)N2CCNCC2)c1
3600 nM | 4100 nM | 4900 nM | 420 nM | 13 nM | N=C(N)NCCNC(=O)C1CCN(C(=O)[C@H](Cc2cccc(C(=N)N)c2)NS(=O)(=O)c2ccc3c(c2)C(=O)c2ccccc2C3=O)CC1
820 nM | 1400 nM | 2900 nM | 1600 nM | 57 nM | CC(C)c1cc(C(C)C)c(S(=O)(=O)N[C@@H](Cc2cccc(C(=N)N)c2)C(=O)N2CCN(C(=O)CCN=C(N)N)CC2)c(C(C)C)c1
4600 nM | 330 nM | 4100 nM | 2500 nM | 50 nM | CC(C)c1cc(C(C)C)c(S(=O)(=O)N[C@@H](Cc2cccc(C(=N)N)c2)C(=O)N2CCCN(C(=O)C3CCN(C(=N)N)CC3)CC2)c(C(C)C)c1
 |  |  |  | 82 nM | CC(C)c1cc(C(C)C)c(S(=O)(=O)NC(Cc2cccc(C(=N)N)c2)C(=O)N2CCN(C(=O)CCN=C(N)N)CC2)c(C(C)C)c1 (configuration not stated)
1100 nM | 640 nM | 13000 nM | 9400 nM | 140 nM | CC(C)c1cc(C(C)C)c(S(=O)(=O)N[C@@H](Cc2cccc(C(=N)N)c2)C(=O)N2CCN(C(=O)CCCN)CC2)c(C(C)C)c1
7700 nM | 3100 nM | 4000 nM | 420 nM | 21 nM | N=C(N)c1cccc(C[C@H](NS(=O)(=O)c2ccc3c(c2)C(=O)c2ccccc2C3=O)C(=O)N2CCC(C(=O)NCCN)CC2)c1
2100 nM | 1200 nM | 34000 nM | 170 nM | 42 nM | N=C(N)NCCCC1CCN(C(=O)[C@H](Cc2cccc(C(=N)N)c2)NS(=O)(=O)c2ccc3ccccc3c2)CC1
1500 nM | 820 nM | 9000 nM | 1200 nM | 330 nM | CC(C)c1cc(C(C)C)c(S(=O)(=O)NC(Cc2cccc(C(=N)N)c2)C(=O)N2CCN(C(=O)CN=C(N)N)CC2)c(C(C)C)c1 (racemic)
870 nM | 800 nM | 4600 nM | 1300 nM | 100 nM | CC(C)c1cc(C(C)C)c(S(=O)(=O)N[C@@H](Cc2cccc(C(=N)N)c2)C(=O)N2CCNCC2)c(C(C)C)c1
6900 nM | 2800 nM | 56000 nM | 1400 nM | 210 nM | N=C(N)NCCC(=O)N1CCN(C(=O)[C@H](Cc2cccc(C(=N)N)c2)NS(=O)(=O)c2ccc3ccccc3c2)CC1
43000 nM | 12000 nM | 130000 nM | 2600 nM | 400 nM | N=C(N)NCCC(=O)N1CCN(C(=O)[C@H](Cc2cccc(C(=N)N)c2)NS(=O)(=O)Cc2ccc3ccccc3c2)CC1
56000 nM | 4200 nM | 80000 nM | 1500 nM | 690 nM | N=C(N)c1cccc(C[C@H](NS(=O)(=O)CCc2cccc3ccccc23)C(=O)N2CCN(C(=O)CCN=C(N)N)CC2)c1
4000 nM | 3100 nM | 10000 nM | 580 nM | 250 nM | N=C(N)NCCC(=O)N1CCN(C(=O)[C@H](Cc2cccc(C(=N)N)c2)NS(=O)(=O)c2ccc(-c3ccccc3)cc2)CC1
600 nM | 1200 nM | 10000 nM | 1800 nM | 8.7 nM | N=C(N)NCCC(=O)Nc1ccc(S(=O)(=O)N[C@@H](Cc2cccc(C(=N)N)c2)C(=O)N2CCC(CCNC(=N)N)CC2)cc1
 |  |  |  | 14000 nM | Cc1ccc(S(=O)(=O)NC(Cc2cccc(C(=N)N)c2)C(=O)N2CCCCC2)cc1 (configuration not stated)
6100 nM | 3200 nM | 4600 nM | 460 nM |  | N=C(N)NCCC(=O)N1CCN(C(=O)[C@H](Cc2cccc(C(=N)N)c2)NS(=O)(=O)c2ccc3cc4ccccc4cc3c2)CC1

SMILES | Ki [1] | Ki (Plasminogen) | Ki (Coagulation factor X) | Ki (Prothrombin) | Ki [2]
N=C(N)c1cccc(C[C@H](NS(=O)(=O)c2cccc(NC(=O)CN)c2)C(=O)N2CCC(CCN)CC2)c1 | 11000 nM | 4500 nM | 35000 nM | 7000 nM | 
N=C(N)c1cccc(C[C@H](NS(=O)(=O)c2ccc3ccccc3c2)C(=O)N2CCC(C3CCN(C(=N)N)CC3)CC2)c1 | 1300 nM | 1400 nM | 25000 nM | 1800 nM | 
CC(C)c1cc(C(C)C)c(S(=O)(=O)N[C@@H](Cc2cccc(C(=N)N)c2)C(=O)N2CCCN(C(=O)CCN)CC2)c(C(C)C)c1 | 1200 nM | 360 nM | 5300 nM | 490 nM | 
N=C(N)c1cccc(C[C@H](NS(=O)(=O)c2cccc(NC(=O)CCCN)c2)C(=O)N2CCC(CCN)CC2)c1 | 8000 nM | 2500 nM | 23000 nM | 21000 nM | 
CCC(=O)N1CCN(C(=O)[C@H](Cc2cccc(C(=N)N)c2)NS(=O)(=O)c2ccc3c(c2)C(=O)c2ccccc2C3=O)CC1 | 31000 nM | 6000 nM | 1300 nM | 54 nM | 
CC(C)c1cc(C(C)C)c(S(=O)(=O)N[C@@H](Cc2cccc(C(=N)N)c2)C(=O)N2CCN(C(=O)C3CCNCC3)CC2)c(C(C)C)c1 | 1200 nM | 1300 nM | 17000 nM | 5400 nM | 
N=C(N)c1cccc(C[C@H](NS(=O)(=O)c2ccc3ccccc3c2)C(=O)N2CCC(C3CCNCC3)CC2)c1 | 2200 nM | 210 nM | 24000 nM | 12000 nM | 
N=C(N)c1cccc(C[C@H](NS(=O)(=O)c2ccc(NC(=O)CCN)cc2)C(=O)N2CCC(CCN)CC2)c1 | 820 nM | 1200 nM | 15000 nM | 8800 nM | 28 nM
CC(C)c1cc(C(C)C)c(S(=O)(=O)N[C@@H](Cc2cccc(C(=N)N)c2)C(=O)N2CCCN(C(=O)C3CCNCC3)CC2)c(C(C)C)c1 | 2500 nM | 260 nM | 5800 nM | 5000 nM | 
N=C(N)c1cccc(C[C@H](NS(=O)(=O)c2ccc(-c3ccccc3)cc2)C(=O)N2CCN(C(=O)C3CCN(C(=N)N)CC3)CC2)c1 | 12000 nM | 1400 nM | 2800 nM | 1300 nM | 
CC(C)c1cc(C(C)C)c(S(=O)(=O)N[C@@H](Cc2cccc(C(=N)N)c2)C(=O)N2CCN(C(=O)CCN)CC2)c(C(C)C)c1 |  | 440 nM | 15000 nM | 3300 nM | 
